# Results published in patent US11873288B2, “Inhibitors for soluble epoxide hydrolase (sEH) and fatty acid amide hydrolase (FAAH)” (The Regents of the University of California, priority 2016, dated 2024).
# Columns and labels:
# Assay type in all cases: biochemical
# hsEH = target: T1, hsEH (Homo sapiens, UniProt P34913); test: human sEH inhibition (hsEH IC50)
# T1 sequence (P34913 1-555): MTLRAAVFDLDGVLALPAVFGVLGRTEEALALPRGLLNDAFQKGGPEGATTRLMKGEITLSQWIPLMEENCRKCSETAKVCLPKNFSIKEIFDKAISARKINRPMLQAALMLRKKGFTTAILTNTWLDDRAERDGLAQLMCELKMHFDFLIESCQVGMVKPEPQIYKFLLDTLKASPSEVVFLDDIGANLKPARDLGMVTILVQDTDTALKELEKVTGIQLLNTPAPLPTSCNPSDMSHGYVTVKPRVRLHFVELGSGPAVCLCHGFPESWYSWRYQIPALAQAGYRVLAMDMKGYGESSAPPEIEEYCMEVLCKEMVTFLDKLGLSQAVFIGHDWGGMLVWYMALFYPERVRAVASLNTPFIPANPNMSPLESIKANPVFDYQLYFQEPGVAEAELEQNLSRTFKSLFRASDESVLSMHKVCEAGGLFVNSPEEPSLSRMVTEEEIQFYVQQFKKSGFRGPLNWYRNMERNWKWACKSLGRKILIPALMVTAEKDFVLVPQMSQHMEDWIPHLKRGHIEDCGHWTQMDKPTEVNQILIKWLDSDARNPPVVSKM
# hFAAH [1] = target: T2, hFAAH (Homo sapiens, UniProt O00519); test: recombinant FAAH enzyme with fluorescent substrate OMP (hFAAH IC50, screen)
# T2 construct: made in house
# T2 sequence (O00519 1-579): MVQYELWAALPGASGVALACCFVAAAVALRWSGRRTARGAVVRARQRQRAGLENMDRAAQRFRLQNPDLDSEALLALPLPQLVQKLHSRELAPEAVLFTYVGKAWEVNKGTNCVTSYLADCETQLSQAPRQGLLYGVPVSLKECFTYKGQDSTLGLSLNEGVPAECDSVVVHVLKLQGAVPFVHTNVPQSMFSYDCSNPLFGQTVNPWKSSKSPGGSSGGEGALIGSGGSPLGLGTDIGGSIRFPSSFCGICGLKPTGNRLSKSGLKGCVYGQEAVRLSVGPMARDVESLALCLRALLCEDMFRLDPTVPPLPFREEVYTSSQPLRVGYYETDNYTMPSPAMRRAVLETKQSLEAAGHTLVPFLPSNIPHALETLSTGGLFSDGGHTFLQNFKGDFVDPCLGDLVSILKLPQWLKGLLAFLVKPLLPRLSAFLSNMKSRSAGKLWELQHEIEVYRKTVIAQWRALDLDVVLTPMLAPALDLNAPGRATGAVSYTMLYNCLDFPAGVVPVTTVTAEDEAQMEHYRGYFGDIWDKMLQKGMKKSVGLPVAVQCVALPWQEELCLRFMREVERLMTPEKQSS
# hFAAH [2] = target: T2, hFAAH; test: hFAAH inhibition kinetics (KD, k2)
SMILES,IC50 (hsEH) [nM],IC50 (hFAAH [1]) [nM],further results
"O=C(Nc1ccccc1)N[C@H]1CC[C@H](Oc2ccc(C(=O)O)cc2)CC1 [Compound A-1, 4-((trans-4-(3-phenylureido)cyclohexyl)oxy)benzoic acid]",30,,
"O=C(Nc1ccc(F)cc1)N[C@H]1CC[C@H](Oc2ccc(C(=O)O)cc2)CC1 [Compound A-2, 4-((trans-4-(3-(4-fluorophenyl)ureido)cyclohexyl)oxy)benzoic acid]",18,,
"O=C(NCCCCOc1ccc(C(=O)O)cc1)Nc1ccc(OC(F)(F)F)cc1 [Compound A-6, 4-(4-(3-(4-(trifluoromethoxy)phenyl)ureido)butoxy)benzoic acid]",15,,
"O=C(O)c1ccc(OC2CCN(C(=O)Nc3ccc(OC(F)(F)F)cc3)CC2)cc1 [Compound A-10, 4-((1-((4-(trifluoromethoxy)phenyl)carbamoyl)piperidin-4-yl)oxy)benzoic acid]",8,,
N#Cc1ccc(O[C@H]2CC[C@H](NC(=O)Nc3ccc(OC(F)(F)F)cc3)CC2)cc1 [Compound A-11],5,,
"COC(=O)c1ccc(O[C@H]2CC[C@H](NC(=O)Nc3ccc(OC(F)(F)F)cc3)CC2)cc1 [Compound A-12, methyl 4-((trans-4-(3-(4-(trifluoromethoxy)phenyl)ureido)cyclohexyl)oxy) benzoate]",7,,
"CC(C)OC(=O)c1ccc(O[C@H]2CC[C@H](NC(=O)Nc3ccc(OC(F)(F)F)cc3)CC2)cc1 [Compound A-13, isopropyl 4-((trans-4-(3-(4-(trifluoromethoxy)phenyl)ureido)cyclohexyl)oxy)benzoate]",5,,
"O=C(Nc1ccc(OC(F)(F)F)cc1)N[C@H]1CC[C@H](Oc2ccc(C(=O)NCCO)cc2)CC1 [Compound A-15, N-(2-hydroxyethyl)-trans-4-((−4-(3-(4-(trifluoromethoxy)phenyl)ureido)cyclohexyl)oxy)benzamide]",2,,
O=C(O)CNC(=O)c1ccc(O[C@H]2CC[C@H](NC(=O)Nc3ccc(OC(F)(F)F)cc3)CC2)cc1 [Compound A-16],2,,
"COC(=O)CNC(=O)c1ccc(O[C@H]2CC[C@H](NC(=O)Nc3ccc(OC(F)(F)F)cc3)CC2)cc1 [Compound A-17, methyl trans-(4-((4-(3-(4-(trifluoromethoxy)phenyl)ureido)cyclohexyl)oxy)benzoyl)glycinate]",3,,
"NC(=O)c1ccc(O[C@H]2CC[C@H](NC(=O)Nc3ccc(OC(F)(F)F)cc3)CC2)cc1 [Compound A-19, trans-4-((−4-(3-(4-(trifluoromethoxy)phenyl)ureido)cyclohexyl)oxy) benzamide]",2,,
"O=Cc1ccc(O[C@H]2CC[C@H](NC(=O)Nc3ccc(OC(F)(F)F)cc3)CC2)cc1 [Compound A-20, trans-1-(4-(4-formyl-phenoxy)cyclohexyl)-3-(4-(trifluoromethoxy)phenyl)urea]",4,,
COc1ccc(O[C@H]2CC[C@H](NC(=O)Nc3ccc(OC(F)(F)F)cc3)CC2)cc1 [Compound A-22],3,,
"O=C(Nc1ccc(OC(F)(F)F)cc1)N[C@H]1CC[C@H](Oc2ccc(CO)cc2)CC1 [Compound A-24, 1-(trans-4-(4-(hydroxymethyl)phenoxy)cyclohexyl)-3-(4-(trifluoromethoxy)phenyl)urea]",3,,
"Cc1nnc(-c2ccc(O[C@H]3CC[C@H](NC(=O)Nc4ccc(OC(F)(F)F)cc4)CC3)cc2)o1 [Compound A-25, 1-(trans-4-(4-(5-methyl-1,3,4-oxadiazol-2-yl)phenoxy)cyclohexyl)-3-(4-(trifluoromethoxy)phenyl)urea]",4,,
"O=C(Nc1ccc(OC(F)(F)F)cc1)N[C@H]1CC[C@H](Oc2ccc(C(=O)NCc3ccccc3)cc2)CC1 [Compound A-27, N-benzyl-trans-4-((−4-(3-(4-(trifluoromethoxy)phenyl)ureido)cyclohexyl)oxy)benzamide]",5,,
"O=C(Nc1ccc(F)cc1)N1CCC(Cc2cnc3ccccc3c2)CC1 [Compound B-1, N-(4-fluorophenyl)-4-(quinolin-3-ylmethyl)piperidine-1-carboxamide]",94 ± 42,88,increase of activity/potency towards sEH (hsEH): 7 fold; decrease of activity/potency towards FAAH (hFAAH [1]; relative to PF-750): 4 fold
"O=C(Nc1ccc(Cl)cc1)N1CCC(Cc2cnc3ccccc3c2)CC1 [Compound B-2, N-(4-chlorophenyl)-4-(quinolin-3-ylmethyl)piperidine-1-carboxamide]",20 ± 4,62,increase of activity/potency towards sEH (hsEH): 30 fold; decrease of activity/potency towards FAAH (hFAAH [1]; relative to PF-750): 3 fold
"O=C(Nc1ccccc1F)N1CCC(Cc2cnc3ccccc3c2)CC1 [Compound B-3, N-(2-fluorophenyl)-4-(quinolin-3-ylmethyl)piperidine-1-carboxamide]",800 ± 400,49,increased potency towards FAAH (hFAAH [1]; relative to PF-750): 2.5 fold
"O=C(Nc1ccc(OC(F)(F)F)cc1)N1CCC(Cc2cnc3ccccc3c2)CC1 [Compound B-4, 4-(quinolin-3-ylmethyl)-N-(4-(trifluoromethoxy)phenyl)piperidine-1-carboxamide]",8 ± 1,390,increase of activity/potency towards sEH (hsEH): 80 fold; decrease of activity/potency towards FAAH (hFAAH [1]; relative to PF-750): 20.5 fold
"O=C(Nc1cccnc1)N1CCC(Cc2cnc3ccccc3c2)CC1 [Compound B-6, N-(pyridin-3-yl)-4-(quinolin-3-ylmethyl)piperidine-1-carboxamide]",4700 ± 1800,14,
"COc1ccc(NC(=O)N2CCC(Cc3ccc4ccccc4n3)CC2)cc1 [Compound B-7, N-(4-methoxyphenyl)-4-(quinolin-2-ylmethyl)piperidine-1-carboxamide]",,,Kd (hFAAH [2]): 100 ± 40 nM; hFAAH k2 (hFAAH [2]): 0.28 ± 0.04 min⁻¹
"COc1ccc(NC(=O)N2CCC(Cc3cccc(Oc4ccc(C(F)(F)F)cn4)c3)CC2)cc1 [Compound B-9, N-(4-methoxyphenyl)-4-(3-((5-(trifluoromethyl)pyridin-2-yl)oxy)benzyl) piperidine-1-carboxamide]",,,increase in potency towards FAAH (hFAAH [1]; relative to B-5): 32 fold; Kd (hFAAH [2]): 0.7 ± 0.27 nM; hFAAH k2 (hFAAH [2]): 0.26 ± 0.03 min⁻¹
"O=C(Nc1ccc(OC(F)(F)F)cc1)N1CCC(Cc2cccc(Oc3ccc(C(F)(F)F)cn3)c2)CC1 [Compound B-11, N-(4-(trifluoromethoxy)phenyl)-4-(3-((5-(trifluoromethyl)pyridin-2-yl)oxy)benzyl)piperidine-1-carboxamide]",,,hsEH IC50 (hsEH): single digit; hFAAH IC50 (hFAAH [1]): single digit
"O=C(Nc1ccc(C(F)(F)F)cc1)N1CCC(Cc2cccc(Oc3ccc(C(F)(F)F)cn3)c2)CC1 [Compound B-13, N-(4-(trifluoromethyl)phenyl)-4-(3-((5-(trifluoromethyl)pyridin-2-yl)oxy)benzyl)piperidine-1-carboxamide]",7,8,
"O=C(Nc1ccc(C(F)(F)F)cn1)N1CCC(Cc2cccc(Oc3ccc(C(F)(F)F)cn3)c2)CC1 [Compound B-14, N-(5-(trifluoromethyl)pyridin-2-yl)-4-(3-((5-(trifluoromethyl)pyridin-2-yl)oxy)benzyl)piperidine-1-carboxamide]",60,3,
"O=C(Nc1ccc(C(F)(F)F)nc1)N1CCC(Cc2cccc(Oc3ccc(C(F)(F)F)cn3)c2)CC1 [Compound B-15, 4-(3-((5-(trifluoromethyl)pyridin-2-yl)oxy)benzyl)-N-(6-(trifluoromethyl)pyridin-3-yl)piperidine-1-carboxamide]",70,24,
"O=C(Nc1cccnn1)N1CCC(Cc2cccc(Oc3ccc(C(F)(F)F)cn3)c2)CC1 [Compound B-16, N-(pyridazin-3-yl)-4-(3-((5-(trifluoromethyl)pyridin-2-yl)oxy)benzyl)piperidine-1-carboxamide]",> 10000,0.5,
Cc1noc(NC(=O)N2CCC(Cc3cccc(Oc4ccc(C(F)(F)F)cn4)c3)CC2)c1C [Compound B-17],500,1,
"O=C(Nc1ccc(C(F)(F)F)cc1F)N1CCC(Cc2cccc(Oc3ccc(C(F)(F)F)cn3)c2)CC1 [Compound B-18, N-(2-fluoro-4-(trifluoromethyl)phenyl)-4-(3-((5-(trifluoromethyl)pyridin-2-yl)oxy)benzyl)piperidine-1-carboxamide]",9,3,
